Molecular target: T1, Axl (Homo sapiens, UniProt P30530+Q14393)
T1 construct: extracellular and trans-membrane domain of Axl fused to IFN-γR1 intracellular domain; with Gas6
Assay: Gas6-induced hAxl/IFN-γR1 CHO reporter (pSTAT1) inhibition; sAxl-Gas6 pull-down partially inhibited
Format: cell-based

T1 sequence (P30530 26-472 limits assumed): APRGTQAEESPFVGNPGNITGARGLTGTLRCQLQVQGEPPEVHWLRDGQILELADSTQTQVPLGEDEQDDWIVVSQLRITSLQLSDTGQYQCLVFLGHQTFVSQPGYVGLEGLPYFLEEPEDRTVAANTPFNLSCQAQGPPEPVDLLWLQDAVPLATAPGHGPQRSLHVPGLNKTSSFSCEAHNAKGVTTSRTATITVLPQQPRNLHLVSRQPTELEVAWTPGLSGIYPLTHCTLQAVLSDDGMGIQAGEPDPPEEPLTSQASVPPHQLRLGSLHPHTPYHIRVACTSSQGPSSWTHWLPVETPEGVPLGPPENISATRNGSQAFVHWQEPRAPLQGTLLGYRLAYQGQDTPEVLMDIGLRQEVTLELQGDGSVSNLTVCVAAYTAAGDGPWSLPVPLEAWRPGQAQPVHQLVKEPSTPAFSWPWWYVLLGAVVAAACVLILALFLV
T1 sequence (Q14393 31-678): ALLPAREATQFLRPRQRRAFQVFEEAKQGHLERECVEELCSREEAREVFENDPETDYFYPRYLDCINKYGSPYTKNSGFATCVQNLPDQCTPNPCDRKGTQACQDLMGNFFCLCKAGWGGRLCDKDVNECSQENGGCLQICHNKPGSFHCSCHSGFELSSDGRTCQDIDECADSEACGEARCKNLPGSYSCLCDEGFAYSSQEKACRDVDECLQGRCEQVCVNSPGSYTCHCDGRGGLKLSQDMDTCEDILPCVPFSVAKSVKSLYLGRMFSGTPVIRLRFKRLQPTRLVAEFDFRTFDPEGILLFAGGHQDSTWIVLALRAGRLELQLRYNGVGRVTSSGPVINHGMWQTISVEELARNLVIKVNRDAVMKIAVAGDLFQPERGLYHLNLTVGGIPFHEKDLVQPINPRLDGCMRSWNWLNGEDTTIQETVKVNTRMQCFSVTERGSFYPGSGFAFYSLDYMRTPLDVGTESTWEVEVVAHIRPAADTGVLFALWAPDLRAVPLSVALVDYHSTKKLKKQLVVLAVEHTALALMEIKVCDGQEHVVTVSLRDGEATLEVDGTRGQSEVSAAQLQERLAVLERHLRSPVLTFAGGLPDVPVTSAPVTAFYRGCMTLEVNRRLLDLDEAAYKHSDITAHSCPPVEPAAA

- IC50: low micromolar
SMILES: Cc1noc(C)c1CSc1ccccc1C(=O)N1CCN(c2cccc(C(F)(F)F)c2)CC1 [RU-302]
